Reference: PubChem BioAssay AID328 (DTP/NCI, 2004)
Values joined by “and” are separate entries in the source; they are usually repeats but may differ in a detail not shown here. Equal entries are not always repeated. Toxic doses and inconclusive results are not listed.

Test system: BDF1 mice, P388 leukemia ip, median survival T/C
Assay: NCI In Vivo Anticancer Drug Screen. Data for tumor model P388 Leukemia (intraperitoneal) in B6D2F1 (BDF1) mice
Settings: endpoint: median survival time, higher = longer survival
In short: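 Transplantable tumour in mice; compound vs vehicle dosing; survival scored; ratio of treated to control reported.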

[1] = dose: 100.0 mg/kg/injection, schedule: Q04DX003 (ip), vehicle: Klucel (hydroxypropylcellulose) (HPC)
[2] = dose: 200.0 mg/kg/injection, schedule: Q01DX009 (ip), vehicle: Klucel (hydroxypropylcellulose) (HPC)
[3] = dose: 200.0 mg/kg/injection, schedule: Q04DX003 (ip), vehicle: Klucel (hydroxypropylcellulose) (HPC)
[4] = dose: 400.0 mg/kg/injection, schedule: Q01DX009 (ip), vehicle: Klucel (hydroxypropylcellulose) (HPC)
[5] = dose: 400.0 mg/kg/injection, schedule: Q04DX003 (ip), vehicle: Klucel (hydroxypropylcellulose) (HPC)
[6] = dose: 12.5 mg/kg/injection, schedule: Q01DX009 (ip), vehicle: water
[7] = dose: 25.0 mg/kg/injection, schedule: Q01DX009 (ip), vehicle: water
[8] = dose: 50.0 mg/kg/injection, schedule: Q01DX009 (ip), vehicle: water
[9] = dose: 50.0 mg/kg/injection, schedule: Q04DX003 (ip), vehicle: water
[10] = dose: 100.0 mg/kg/injection, schedule: Q01DX009 (ip), vehicle: water
[11] = dose: 100.0 mg/kg/injection, schedule: Q04DX003 (ip), vehicle: water
[12] = dose: 200.0 mg/kg/injection, schedule: Q04DX003 (ip), vehicle: water
[13] = dose: 400.0 mg/kg/injection, schedule: Q04DX003 (ip), vehicle: water
[14] = dose: 200.0 mg/kg/injection, schedule: Q04DX003 (ip), vehicle: saline with Tween-80
[15] = dose: 50.0 mg/kg/injection, schedule: Q01DX009 (ip), vehicle: Klucel (hydroxypropylcellulose) (HPC)
[16] = dose: 50.0 mg/kg/injection, schedule: Q01DX009 (ip), vehicle: saline with Tween-80
[17] = dose: 100.0 mg/kg/injection, schedule: Q01DX009 (ip), vehicle: saline with Tween-80
[18] = dose: 200.0 mg/kg/injection, schedule: Q01DX009 (ip), vehicle: saline with Tween-80

Cc1ccc(C)c(NC(=O)c2ccccc2N)c1
T/C (dose: 100.0 mg/kg/injection, schedule: Q01DX009 (ip), vehicle: Klucel (hydroxypropylcellulose) (HPC)): 100 % of control | T/C [1]: 104 % of control | T/C [2]: 100 % of control | T/C [3]: 104 % of control | T/C [4]: 90 % of control | T/C [5]: 104 % of control

COc1cc2cc[n+]3c(C)c4ccc(OC)c(OC)c4cc3c2cc1OC (tested in a mixture with another compound)
T/C (dose: 2.0 mg/kg/injection, schedule: Q01DX009 (ip), vehicle: saline): 122 % of control | T/C (dose: 5.0 mg/kg/injection, schedule: Q01DX009 (ip), vehicle: saline): 117 % of control | T/C (dose: 20.0 mg/kg/injection, schedule: Q01DX009 (ip), vehicle: saline): 150 % of control and 192 % of control | T/C (dose: 40.0 mg/kg/injection, schedule: Q01DX009 (ip), vehicle: saline): 168 % of control and 185 % of control

FC(Cl)(Cl)c1nc2nc(Cl)c(Cl)nc2[nH]1
T/C (dose: 3.12 mg/kg/injection, schedule: Q01DX009 (ip), vehicle: water): 104 % of control | T/C (dose: 6.25 mg/kg/injection, schedule: Q01DX009 (ip), vehicle: water): 107 % of control | T/C (dose: 6.25 mg/kg/injection, schedule: Q04DX003 (ip), vehicle: water): 116 % of control | T/C [6]: 100 % of control | T/C (dose: 12.5 mg/kg/injection, schedule: Q04DX003 (ip), vehicle: water): 116 % of control | T/C [7]: 108 % of control | T/C (dose: 25.0 mg/kg/injection, schedule: Q04DX003 (ip), vehicle: water): 102 % of control | T/C [8]: 118 % of control | T/C [9]: 116 % of control | T/C [10]: 101 % of control | T/C [11]: 102 % of control

O=C1OC(c2ccc(Cl)cc2)=N/C1=C\c1ccccc1
T/C (dose: 100.0 mg/kg/injection, schedule: Q01DX001 (ip), vehicle: Klucel (hydroxypropylcellulose) (HPC)): 95 % of control | T/C [1]: 86 % of control | T/C (dose: 200.0 mg/kg/injection, schedule: Q01DX001 (ip), vehicle: Klucel (hydroxypropylcellulose) (HPC)): 95 % of control | T/C [3]: 90 % of control | T/C (dose: 400.0 mg/kg/injection, schedule: Q01DX001 (ip), vehicle: Klucel (hydroxypropylcellulose) (HPC)): 100 % of control | T/C [5]: 95 % of control

C1CCC2[N-]CC3CCCCC3[N-]CC3CCCCC3[N-]CC3CCCCC3[N-]CC2C1.[Cu] (centres undefined)
T/C (dose: 0.39 mg/kg/injection, schedule: Q01DX009 (ip), vehicle: saline): 107 % of control | T/C (dose: 0.78 mg/kg/injection, schedule: Q01DX009 (ip), vehicle: saline): 113 % of control | T/C (dose: 3.12 mg/kg/injection, schedule: Q01DX009 (ip), vehicle: saline): 166 % of control | T/C (dose: 6.25 mg/kg/injection, schedule: Q01DX009 (ip), vehicle: saline): 96 % of control

CCC([NH-])=O.CCC([NH-])=O.[Pt+2]
T/C [11]: 101 % of control | T/C [12]: 101 % of control | T/C [13]: 101 % of control

CCCSCCCC(=O)O
T/C (dose: 50.0 mg/kg/injection, schedule: Q04DX003 (ip), vehicle: Klucel (hydroxypropylcellulose) (HPC)): 91 % of control | T/C [3]: 91 % of control

CNC(=S)N/N=C(\C)c1ccccn1
T/C (dose: 6.25 mg/kg/injection, schedule: Q01DX009 (ip), vehicle: saline with Tween-80): 102 % of control | T/C (dose: 12.5 mg/kg/injection, schedule: Q01DX009 (ip), vehicle: saline with Tween-80): 121 % of control | T/C (dose: 25.0 mg/kg/injection, schedule: Q01DX009 (ip), vehicle: saline with Tween-80): 102 % of control

Clc1ccc(/C=N\N=C\c2ccc(Cl)c(Cl)c2)cc1Cl
T/C (dose: 100.0 mg/kg/injection, schedule: Q04DX003 (ip), vehicle: saline with Tween-80): 105 % of control | T/C [14]: 111 % of control | T/C (dose: 400.0 mg/kg/injection, schedule: Q04DX003 (ip), vehicle: saline with Tween-80): 111 % of control

COC(CCC#N)c1ccc(C)cc1 (centres undefined)
T/C (dose: 25.0 mg/kg/injection, schedule: Q04DX003 (sc), vehicle: olive oil, sesame oil, peanut oil): 100 % of control | T/C (dose: 50.0 mg/kg/injection, schedule: Q04DX003 (sc), vehicle: olive oil, sesame oil, peanut oil): 95 % of control | T/C (dose: 100.0 mg/kg/injection, schedule: Q04DX003 (sc), vehicle: olive oil, sesame oil, peanut oil): 100 % of control

CC(=O)C(=O)NC1/C=C(C)\C=C/C(O)C/C=C(C)\C=C/C(O)CC2OC(=O)C1(C)C(=O)C2C (centres undefined)
T/C [15]: 109 % of control and 122 % of control | T/C [2]: 153 % of control and 163 % of control | T/C [4]: 171 % of control

CCOC(=O)C(=O)CC1=CC=CC2=NC(=O)CCN12
T/C (dose: 66.0 mg/kg/injection, schedule: Q01DX001 (ip), vehicle: saline with Tween-80): 109 % of control | T/C (dose: 100.0 mg/kg/injection, schedule: Q01DX001 (ip), vehicle: saline with Tween-80): 100 % of control | T/C (dose: 150.0 mg/kg/injection, schedule: Q01DX001 (ip), vehicle: saline with Tween-80): 100 % of control | T/C (dose: 200.0 mg/kg/injection, schedule: Q01DX001 (ip), vehicle: saline with Tween-80): 100 % of control

O=S1(=O)CCCCO1
T/C (dose: 11.0 mg/kg/injection, schedule: Q01DX009 (ip), vehicle: saline): 90 % of control | T/C (dose: 16.5 mg/kg/injection, schedule: Q01DX009 (ip), vehicle: saline): 100 % of control | T/C (dose: 25.0 mg/kg/injection, schedule: Q01DX009 (ip), vehicle: saline): 109 % of control | T/C (dose: 25.0 mg/kg/injection, schedule: Q04DX003 (ip), vehicle: saline): 95 % of control | T/C (dose: 37.5 mg/kg/injection, schedule: Q01DX009 (ip), vehicle: saline): 100 % of control | T/C (dose: 50.0 mg/kg/injection, schedule: Q04DX003 (ip), vehicle: saline): 100 % of control | T/C (dose: 100.0 mg/kg/injection, schedule: Q04DX003 (ip), vehicle: saline): 104 % of control

CCCCNC(C)(C)C(SSSC(c1ccco1)C(C)(C)NCCCC)c1ccco1 (centres undefined)
T/C (dose: 50.0 mg/kg/injection, schedule: Q04DX003 (ip), vehicle: saline with Tween-80): 115 % of control | T/C [14]: 120 % of control

COCCCNS(=O)(=O)c1ncnc2nc[nH]c12
T/C (dose: 132.0 mg/kg/injection, schedule: Q04DX003 (ip), vehicle: saline with Tween-80): 100 % of control | T/C [14]: 100 % of control | T/C (dose: 300.0 mg/kg/injection, schedule: Q04DX003 (ip), vehicle: saline with Tween-80): 100 % of control

O=C(O)c1oc2ccccc2c1CO
T/C [16]: 99 % of control | T/C [17]: 101 % of control | T/C [18]: 105 % of control

COc1ccc(/C=C2\SC(=S)N(CCCN3CCOCC3)C2=O)c(OC)c1
T/C [16]: 97 % of control | T/C [17]: 92 % of control | T/C [18]: 95 % of control

O=c1[nH]c2nccnc2[nH]1
T/C [6]: 93 % of control and 99 % of control | T/C [7]: 90 % of control and 104 % of control | T/C [8]: 97 % of control | T/C [9]: 107 % of control | T/C [10]: 89 % of control and 101 % of control and 109 % of control | T/C [11]: 105 % of control | T/C [12]: 107 % of control | T/C [13]: 116 % of control

NCCCC(N)(CO)C(=O)O (centres undefined)
T/C (dose: 50.0 mg/kg/injection, schedule: Q01DX009 (ip), vehicle: saline): 91 % of control | T/C (dose: 100.0 mg/kg/injection, schedule: Q01DX009 (ip), vehicle: saline): 97 % of control | T/C (dose: 200.0 mg/kg/injection, schedule: Q01DX009 (ip), vehicle: saline): 100 % of control

CCCCCCCCCCOP(=O)(O)OCCCCCCCCCC
T/C (dose: 12.5 mg/kg/injection, schedule: Q01DX009 (ip), vehicle: Klucel (hydroxypropylcellulose) (HPC)): 95 % of control | T/C (dose: 25.0 mg/kg/injection, schedule: Q01DX009 (ip), vehicle: Klucel (hydroxypropylcellulose) (HPC)): 99 % of control | T/C [15]: 95 % of control

Cc1cccc(NC(=O)N(CCCl)N=O)c1
T/C (dose: 0.4 mg/kg/injection, schedule: Q01DX009 (ip), vehicle: saline): 157 % of control | T/C (dose: 38.0 micrograms/kg/injection, schedule: Q04DX003 (ip), vehicle: saline): 100 % of control | T/C (dose: 75.0 micrograms/kg/injection, schedule: Q04DX003 (ip), vehicle: saline): 109 % of control | T/C (dose: 150.0 micrograms/kg/injection, schedule: Q04DX003 (ip), vehicle: saline): 104 % of control | T/C (dose: 300.0 micrograms/kg/injection, schedule: Q04DX003 (ip), vehicle: saline): 109 % of control
